Reference: article PMC11111408, “Concurrent inhibition of oncogenic and wild-type RAS-GTP for cancer therapy” (Nature, 2024)
Values joined by “and” are separate entries in the source; they are usually repeats but may differ in a detail not shown here. Identical values can stand only once. Like-named read-outs stand apart in the source and are kept apart here.

Test system: AsPC-1 and NCI-H441 cells
Assay: pERK (MSD) and proliferation (CTG) in AsPC-1 and NCI-H441 cells, CYPA inhibitor co-treatment or PPIA KO;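 for Proliferation inhibition with CYPA inhibitor competition: luminescence as % of CYPA inhibitor-only control with 3 mM sanglifehrin A competitor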
Format: cell-based, human
Conditions: for Proliferation, RMC-7977 with or without CYPA inhibitor (panel title not shown): ASPC1, RMC-7977 alone; for activity at 0.0037 µM / activity at 0.01111 µM / activity at 0.03333 µM / activity at 15.2 pM / activity at 45.7 pM / activity at 0.00041 µM / activity at 0.1 µM / activity at 0.3 µM / activity at 5.08 pM: Homo sapiens

CCn1c(-c2cc(N3CCN(C4CC4)CC3)cnc2[C@H](C)OC)c2c3cc(ccc31)-c1csc(n1)C[C@H](NC(=O)[C@H]1[C@@H]3COC[C@@H]31)C(=O)N1CCC[C@H](N1)C(=O)OCC(C)(C)C2 [RMC-7977]
Proliferation, RMC-7977 with or without CYPA inhibitor (panel title not shown) (0.0457 nM, 45.7 pM): 92.4729 | Proliferation, RMC-7977 with or without CYPA inhibitor (panel title not shown) (0.41 nM, 0.00041 µM): 80.9316 | Proliferation, RMC-7977 with or without CYPA inhibitor (panel title not shown) (3.70 nM, 0.0037 µM): 50.3479 | Proliferation, RMC-7977 with or without CYPA inhibitor (panel title not shown) (11.11 nM, 0.01111 µM): 24.3804 | Proliferation, RMC-7977 with or without CYPA inhibitor (panel title not shown) (33.33 nM, 0.03333 µM): 12.3077 | Proliferation, RMC-7977 with or without CYPA inhibitor (panel title not shown) (100.00 nM, 0.1 µM): 7.228 | Proliferation, RMC-7977 with or without CYPA inhibitor (panel title not shown) (300.00 nM, 0.3 µM): 13.3948 | Proliferation, RMC-7977 with or without CYPA inhibitor (panel title not shown) ([…], 5.08 pM): 94.1273 | activity at 0.0037 µM (ASPC1, read-out: Proliferation inhibition in PPIA KO cells treated with RMC-7977, AsPC-1, 3.70 nM): 33% | activity at 0.01111 µM (ASPC1, read-out: Proliferation inhibition in PPIA KO cells treated with RMC-7977, AsPC-1, 11.11 nM): 17.6% | activity at 0.03333 µM (ASPC1, read-out: Proliferation inhibition in PPIA KO cells treated with RMC-7977, AsPC-1, 33.33 nM): 8.78% | activity at 15.2 pM (ASPC1, read-out: Proliferation, RMC-7977 with or without CYPA inhibitor (panel title not shown), ASPC1, RMC-7977 alone, 0.0152 nM): 102% | activity at 45.7 pM (ASPC1, read-out: Proliferation, RMC-7977 with or without CYPA inhibitor (panel title not shown), ASPC1, RMC-7977 alone, 0.0457 nM): 92.6% | activity at 0.00041 µM (ASPC1, read-out: Proliferation, RMC-7977 with or without CYPA inhibitor (panel title not shown), ASPC1, RMC-7977 alone, 0.41 nM): 84.8% | activity at 0.0037 µM (ASPC1, read-out: Proliferation, RMC-7977 with or without CYPA inhibitor (panel title not shown), ASPC1, RMC-7977 alone, 3.70 nM): 47.4% | activity at 0.01111 µM (ASPC1, read-out: Proliferation, RMC-7977 with or without CYPA inhibitor (panel title not shown), ASPC1, RMC-7977 alone, 11.11 nM): 29.5% | activity at 0.03333 µM (ASPC1, read-out: Proliferation, RMC-7977 with or without CYPA inhibitor (panel title not shown), ASPC1, RMC-7977 alone, 33.33 nM): 12.8% | activity at 0.1 µM (ASPC1, read-out: Proliferation, RMC-7977 with or without CYPA inhibitor (panel title not shown), ASPC1, RMC-7977 alone, 100.00 nM): 7.14% | activity at 0.3 µM (ASPC1, read-out: Proliferation, RMC-7977 with or without CYPA inhibitor (panel title not shown), ASPC1, RMC-7977 alone, 300.00 nM): 14.9% | activity at 5.08 pM (ASPC1, read-out: Proliferation, RMC-7977 with or without CYPA inhibitor (panel title not shown), ASPC1, RMC-7977 alone, […]): 101% | activity at 0.00041 µM (ASPC1, read-out: pERK inhibition in PPIA KO cells treated with RMC-7977, AsPC-1, 0.41 nM): 85.8% | activity at 5.08 pM (ASPC1, read-out: pERK inhibition in PPIA KO cells treated with RMC-7977, AsPC-1, […]): 109% | activity at 0.0037 µM (ASPC1, read-out: pERK inhibition in PPIA KO cells treated with RMC-7977, AsPC-1 PPIA KO, 3.70 nM): 109% | activity at 0.01111 µM (ASPC1, read-out: pERK inhibition in PPIA KO cells treated with RMC-7977, AsPC-1 PPIA KO, 11.11 nM): 110% | activity at 15.2 pM (NCI-H441, read-out: Proliferation inhibition in PPIA KO cells treated with RMC-7977, NCI-H441, 0.0152 nM): 124% | activity at 45.7 pM (NCI-H441, read-out: Proliferation inhibition in PPIA KO cells treated with RMC-7977, NCI-H441, 0.0457 nM): 124% | activity at 0.0037 µM (NCI-H441, read-out: Proliferation inhibition in PPIA KO cells treated with RMC-7977, NCI-H441, 3.70 nM): 33% | activity at 0.01111 µM (NCI-H441, read-out: Proliferation inhibition in PPIA KO cells treated with RMC-7977, NCI-H441, 11.11 nM): 24.4% | activity at 0.03333 µM (NCI-H441, read-out: Proliferation inhibition in PPIA KO cells treated with RMC-7977, NCI-H441, 33.33 nM): 22.2% | activity at 0.1 µM (NCI-H441, read-out: Proliferation inhibition in PPIA KO cells treated with RMC-7977, NCI-H441, 100.00 nM): 23.6% | activity at 0.3 µM (NCI-H441, read-out: Proliferation inhibition in PPIA KO cells treated with RMC-7977, NCI-H441, 300.00 nM): 27.5% | activity at 5.08 pM (NCI-H441, read-out: Proliferation inhibition in PPIA KO cells treated with RMC-7977, NCI-H441, […]): 120% | activity at 0.00041 µM (NCI-H441, read-out: pERK inhibition in PPIA KO cells treated with RMC-7977, NCI-H441, 0.41 nM): 88.1% | activity at 0.0037 µM (NCI-H441, read-out: pERK inhibition in PPIA KO cells treated with RMC-7977, NCI-H441, 3.70 nM): 11.8% | Proliferation inhibition with CYPA inhibitor competition (NCI-H441, RMC-7977 0.0152 nM): 112.235 and 120.202 | pERK signal remaining (% of control) with CYPA inhibitor competition (NCI-H441, RMC-7977 0.0152 nM): 101.09 and 141.742 and 99.9715 and 108.212 | Proliferation inhibition with CYPA inhibitor competition (NCI-H441, RMC-7977 0.0457 nM): 127.307 and 133.477 | pERK signal remaining (% of control) with CYPA inhibitor competition (NCI-H441, RMC-7977 0.0457 nM): 116.541 and 138.344 and 94.9151 and 96.9475 | Proliferation inhibition with CYPA inhibitor competition (NCI-H441, RMC-7977 0.41 nM): 83.6742 and 95.5735 and 83.4726 and 112.168 | Proliferation inhibition with CYPA inhibitor competition (NCI-H441, RMC-7977 3.70 nM): 34.5277 and 37.2472 and 40.6838 and 40.7762 | pERK signal remaining (% of control) with CYPA inhibitor competition (NCI-H441, RMC-7977 3.70 nM): 11.9888 and 19.4005 and 10.392 and 10.3218 | Proliferation inhibition with CYPA inhibitor competition (NCI-H441, RMC-7977 11.11 nM): 26.6151 and 22.9193 and 35.0508 and 37.4802 | Proliferation inhibition with CYPA inhibitor competition (NCI-H441, RMC-7977 33.33 nM): 29.0347 and 22.8651 and 29.7232 and 34.4423 | Proliferation inhibition with CYPA inhibitor competition (NCI-H441, RMC-7977 100.00 nM): 28.8791 and 27.2758 and 27.7958 and 31.2386 | Proliferation inhibition with CYPA inhibitor competition (NCI-H441, RMC-7977 300.00 nM): 32.3111 and 29.0775 and 27.5922 and 25.4872
